This note sets out measurements from publication PMC5000617, “Antiproliferative and Pro-Apoptotic Effect of Novel Nitro-Substituted Hydroxynaphthanilides on Human Cancer Cell Lines” (International Journal of Molecular Sciences, 2016).

The subject of one test is caspase 8. Put plainly: Western blot of caspase 8 in THP-1 cells. It is filed as cell-based, human. The conditions noted are these: THP-1, 24 h. The method, then: Most of the apoptotic signalling pathways are controlled by caspases that belong to a group of cysteine proteases. To assess whether compound 2 affects these signalling cascades and which pathway is activated (intrinsic or extrinsic), the activities of caspase 3, caspase 9, and caspase 8 were evaluated using Western blot analysis.
For Western blotting, cells were washed with PBS and lysed in lysis buffer (100 mM Tris-HCl, pH = 6.8; 20% glycerol; 1% SDS) containing protease and phosphatase inhibitor cocktails. Protein concentration was measured using Roti®-Quant universal (Carl Roth, Karsruhe, Germany) according to the manufacturer’s instructions. Cell lysates were supplemented with bromophenol blue (final concentration 0.01% (w/v)) and β-mercaptoethanol (final concentration 1% (v/v)) prior to being heated for 5 min at 95 °C. Equal amounts of protein (10 μg) were loaded into a 12% polyacrylamide gel, separated by SDS-polyacrylamide gel electrophoresis and subsequently electrotransferred onto nitrocellulose membranes. Reversible Ponceau S. staining was performed to assess equal sample loading. […] The intensity of bands was semi-quantitatively analysed using the ImageJ software (National Institute of Mental Health, Bethesda, MD, USA).
In general terms: A western blot detects proteins with antibodies after separation by electrophoresis.

The next test has as its system 3T3-L1 cells. The experiment in a line: WST-1 cell proliferation assay, 3T3-L1 non-tumour cells. It is filed as cell-based, mouse. On the procedure:
(§1) THP-1 human monocytic leukemia cell line, MCF-7 human breast adenocarcinoma cells and 3T3-L1 mouse embryonic fibroblast were purchased from the European Collection of Cell Cultures (ECACC, Salisbury, UK). Cells were routinely tested for the absence of mycoplasma (Hoechst 33258 staining method). THP-1 cells were maintained in RPMI 1640 culture medium containing 2 mM L-glutamine; MCF-7 and 3T3-L1 cells were cultured in DMEM medium. All of the culture media were supplemented with 10% heat-inactivated FBS and antibiotics (100 U/mL penicillin and 100 μg/mL streptomycin). Cells were maintained at 37 °C in a humidified atmosphere containing 5% CO2.
(§2) Cell proliferation was evaluated using Cell Proliferation Reagent WST-1 (2-(4-iodophenyl)-3-(4-nitrophenyl)-5-(2,4-disulfophenyl)-2H-tetrazolium) (Roche Diagnostics, Mannheim, Germany) according to the manufacturer´s instructions. THP-1 (5 × 10^4 cells/100 μL culture medium per well), MCF-7 cells (1 × 10^4 cells/100 μL per well), and 3T3-L1 (2.5 × 10^3 cells/100 μL per well) were cultured in 96-well plates in triplicate. The measurement was performed using Synergy 2 Multi-Mode Microplate Reader (BioTek, Winooski, VT, USA) after 24 h incubation of cells with tested compounds dissolved in DMSO and subsequently in RPMI 1640 to final concentration ranging 0.5–20 μM in the assays. Cell viability was assessed by dye exclusion test. THP-1 (2 × 10^5 cells/mL per well) and MCF-7 cells (8 × 10^4 cells/mL per well) were incubated in 24-well plates with the indicated concentrations of compounds for 24 h. The number of viable cells was determined using hemocytometer after their staining with a solution of erythrosin B (0.1% erythrosin B (w/v) in PBS). The assays were conducted in triplicate. The IC50 and LC50 values were calculated from fitted concentration-response curves using GraphPad Prism 5.00 software (GraphPad Software, San Diego, CA, USA).
(In general: Formazan colour is commonly taken as a measure of viable cells.)

In the next test the test system is THP-1 cells. The experiment in a line: WST-1 cell proliferation assay, THP-1. It is filed as cell-based, human. On the procedure: Initially, we examined the effect of six nitro-substituted hydroxynaphthanilides on the proliferation of human leukaemia and breast carcinoma cell lines, using Water Soluble Tetrazolium Salts-1 (WST-1) assay. For such analyses, THP-1 and MCF-7 cells were treated with the compounds at concentrations ranging from 0.5 to 20 μM for 24 h. […] The inhibitory effect of 2 and 6 was statistically significant (p < 0.001) starting from the concentration of 2.5 and 5 μM in THP-1 and MCF-7 cells, respectively. From the concentration-response curves, the IC50 values were determined.
as §1, §2

Some results are limits rather than exact numbers.

One may read the IC50 as the concentration that gives 50% inhibition. On to `O=C(Nc1cccc([N+](=O)[O-])c1)c1cc2ccccc2cc1O` [Compound 2, 3-hydroxy-N-(3-nitrophenyl)naphthalene-2-carboxamide], for which the “level of active caspase 8” value in the test on caspase 8 is on record as “level of active caspase 8 was not altered”. For the same compound, the “effect on cell proliferation” value is “did not decrease cell growth at any of concentrations used” in the test with 3T3-L1 cells (3T3-L1, 24 h) and “inhibit cell growth in both cell lines in a dose-dependent manner” in the test with THP-1 cells (THP-1, 0.5-20 μM, 24 h). In addition, the IC50 is above 20 µM in the test on 3T3-L1 cells (Mus musculus, 3T3-L1, WST-1, 24 h, non-tumour cells, mean ± SD) and 3.06 ± 0.206 µM in the test with THP-1 cells (Homo sapiens, THP-1, WST-1, 24 h, 0.5-20 μM, mean ± SD). In addition, the “concentration from which the inhibitory effect on proliferation was statistically significant (p < 0.001)” value with THP-1 cells (THP-1, 24 h) came out at 2.5 µM.
